Values of other authors in patent publication US20070243563A1, “Aflatoxin-albumin adduct measurement and the uses thereof” (priority 2000, published 2007).

Legend:
[1] = test system: rats; conditions: rat, in vivo
[2] = test system: humans

## Aflatoxin B1 [AFB1]
[1]
  TD50: 9.3×10^−4 mg/kg per day
  carcinogenic potency relative to benzo(a)pyrene: 1000 times
[2]
  IARC carcinogen classification: Group 1 carcinogens
